Results: paper PMC3053401, “Renal Effects of the Novel Selective Adenosine A1 Receptor Blocker SLV329 in Experimental Liver Cirrhosis in Rats” (PLoS ONE, 2011)

Key:
[1] = molecular target: T1, Phosphodiesterase 4 rolipram binding; experiment: radioligand displacement, filtration, Cheng-Prusoff; details: [3H]rolipram; total brain; high-affinity rolipram-binding site
T1 construct: gene Pde4a; provided by Cerep
Description: radioligand displacement, filtration, Cheng-Prusoff on Phosphodiesterase 4 rolipram binding

[2] = molecular target: T2, Adenosine A1 receptor (A1R) (Homo sapiens, UniProt P30542); experiment: as above; format: binding; details: [3H]DPCPX; receptor preparation from CHO cells; antagonist
T2 construct: gene ADORA1; cloned human receptor in CHO cells; cells provided by Cerep
T2 sequence (P30542 1-326): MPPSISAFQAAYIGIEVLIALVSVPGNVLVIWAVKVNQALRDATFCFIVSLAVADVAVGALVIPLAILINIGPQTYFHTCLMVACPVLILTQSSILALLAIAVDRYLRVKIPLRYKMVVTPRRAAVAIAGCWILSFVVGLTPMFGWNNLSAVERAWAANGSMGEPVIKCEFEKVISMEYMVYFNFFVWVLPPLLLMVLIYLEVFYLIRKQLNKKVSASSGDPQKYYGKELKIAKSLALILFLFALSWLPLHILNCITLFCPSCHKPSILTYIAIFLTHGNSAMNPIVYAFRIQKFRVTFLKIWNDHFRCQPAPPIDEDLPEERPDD
Description: radioligand displacement, filtration, Cheng-Prusoff on Adenosine A1 receptor (A1R)

Adenosine A3 receptor = molecular target: T3, Adenosine A3 receptor (Homo sapiens, UniProt P0DMS8); experiment: as above; format: binding; details: [3H]AB-MECA; receptor preparation from HEK293 cells
T3 construct: gene ADORA3; cloned human receptor in HEK293 cells; cells provided by Cerep
T3 sequence (P0DMS8 1-318): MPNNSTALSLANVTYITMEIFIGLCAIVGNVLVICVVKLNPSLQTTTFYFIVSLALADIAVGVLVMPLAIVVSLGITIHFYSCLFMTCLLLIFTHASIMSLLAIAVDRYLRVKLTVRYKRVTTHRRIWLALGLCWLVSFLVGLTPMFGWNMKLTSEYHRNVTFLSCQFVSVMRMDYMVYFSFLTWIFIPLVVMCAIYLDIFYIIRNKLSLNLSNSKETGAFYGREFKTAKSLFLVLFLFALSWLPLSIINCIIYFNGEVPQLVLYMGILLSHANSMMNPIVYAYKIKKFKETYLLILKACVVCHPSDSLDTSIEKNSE
Description: radioligand displacement, filtration, Cheng-Prusoff on Adenosine A3 receptor

Adenosine A2B receptor = molecular target: T4, Adenosine A2B receptor (Homo sapiens, UniProt P29275); experiment: as above; format: binding; details: [3H]DPCPX; receptor preparation from HEK293 cells
T4 construct: gene ADORA2B; cloned human receptor in HEK293 cells; cells provided by Cerep
T4 sequence (P29275 1-332): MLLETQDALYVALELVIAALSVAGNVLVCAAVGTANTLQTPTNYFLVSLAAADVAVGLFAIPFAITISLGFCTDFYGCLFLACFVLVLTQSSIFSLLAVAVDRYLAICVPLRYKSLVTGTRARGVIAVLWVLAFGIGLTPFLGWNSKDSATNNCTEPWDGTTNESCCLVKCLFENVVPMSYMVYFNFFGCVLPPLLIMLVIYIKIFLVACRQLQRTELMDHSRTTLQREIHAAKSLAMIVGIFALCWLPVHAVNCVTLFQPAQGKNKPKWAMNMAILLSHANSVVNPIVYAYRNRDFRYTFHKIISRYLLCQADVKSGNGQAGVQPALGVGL
Description: radioligand displacement, filtration, Cheng-Prusoff on Adenosine A2B receptor

Adenosine A2A receptor = molecular target: T5, Adenosine A2A receptor (Homo sapiens, UniProt P29274); experiment: as above; format: binding; details: [3H]CGS21680; receptor preparation from HEK293 cells
T5 construct: gene ADORA2A; cloned human receptor in HEK293 cells; cells provided by Cerep
Description: radioligand displacement, filtration, Cheng-Prusoff on Adenosine A2A receptor

[3] = molecular target: T6, Phosphodiesterase 4 enzyme; experiment: radiometric enzyme inhibition assay, scintillation counting; format: biochemical; details: [3H]cAMP substrate; enzyme preparation from U-937 cells
T6 construct: gene PDE4A; native enzyme preparation from U-937 cells; provided by Cerep
Description: radiometric enzyme inhibition assay, scintillation counting on Phosphodiesterase 4 enzyme

T5 sequence (P29274 whole entry): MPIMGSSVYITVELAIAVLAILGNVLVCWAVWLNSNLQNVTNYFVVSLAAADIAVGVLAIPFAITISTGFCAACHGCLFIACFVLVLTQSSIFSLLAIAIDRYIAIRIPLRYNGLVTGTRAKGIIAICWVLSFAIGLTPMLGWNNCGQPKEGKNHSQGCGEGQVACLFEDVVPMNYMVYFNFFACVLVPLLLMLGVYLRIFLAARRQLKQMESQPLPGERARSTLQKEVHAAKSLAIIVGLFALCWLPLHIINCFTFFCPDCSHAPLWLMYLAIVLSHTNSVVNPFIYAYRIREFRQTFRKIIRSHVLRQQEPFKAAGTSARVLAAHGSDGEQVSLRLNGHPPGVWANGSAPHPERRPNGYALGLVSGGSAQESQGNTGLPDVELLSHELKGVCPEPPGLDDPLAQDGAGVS

**Q.** How did the “SLV329 Affinity” value [1] turn out when SLV329 was run?
**A.** 6.1±0.2

**Q.** And the “SLV329 Affinity” value [2]?
**A.** 9.2±0.2

**Q.** What about the “SLV329 Affinity” value (Adenosine A3 receptor) of the same substance?
**A.** 6.9±0.1

**Q.** And the “SLV329 Affinity” value (Adenosine A2B receptor)?
**A.** 6.3±0.1

**Q.** And the “SLV329 Affinity” value (Adenosine A2A receptor)?
**A.** 7.2±0.2

**Q.** And the “SLV329 Affinity” value [3]?
**A.** 5.4±0.1
